From US20250171518A1, “METHODS FOR PREPARING CELLS FOR ADOPTIVE T CELL THERAPY” (City of Hope, priority 2015, published 2025)

Test system: CD19 CAR T cells from bulk T cells (PBMC), TCM, naïve/memory T cells
Assay: Generation of memory CD19 CAR T cells from different T cell subsets
Format: cell-based, human
From the text: FIGS. 6A-6B: Akt inhibition promotes the generation of memory CD19 CAR T cells from different T cell subsets. […] Resultant CD19 CAR T cells were stained with biotinylated Erbitux (cetuximab), followed by streptavidin-PE for CAR detection and antibodies against CD62L. Percentages of CAR+CD62L+ cells are depicted on the basis of the gating of isotype-stained cells. (B) Percentages of CD62L+CD28+ T cells after gating on CAR+CD8+ from six lines of CD19 CAR T cells derived from two different donors are presented.
Resultant CD19CAR T cells were stained with biotinylated Erbitux (cetuximab), followed by streptavidin-PE for CAR detection and antibodies against CD62L. Cells expressing CD62 represent TCM cells or TSCM cells.
Samples from two donors were used to prepare PBMC, TCM, and TN/TCM/TSCM cell populations.

`O=c1[nH]c2ccccc2n1C1CCN(Cc2ccc(-c3nc4cc5[nH]cnc5cc4nc3-c3ccccc3)cc2)CC1` [Akt inhibitor VIII, 1,3-dihydro-1-[1-[[4-(6-phenyl-1H-imidazo[4,5-g]quinoxalin-7-yl)phenyl]methyl]-4-piperidinyl]-2H-benzimidazol-2-one] was tested, and the “percentage of CD62L+ expressing CAR T cells” value (1 μM Akt inhibitor VIII, 17-21 days, bulk T cells, TCM cells or naïve/memory T cells, FIG. 6A) was “increases the percentage of CD62L+ expressing CAR T cells” and the “number of CD62L+/CD28+/CAR+ T cells” value (six cell populations from two donors, 17-21 days with or without Akt inhibitor VIII, FIG. 6B) was “increased the number of CD62L+/CD28+/CAR+ T cells”.
